This is an account of results in patent publication US20230416258A1, “BENZ[…], AND PREPARATION METHOD THEREFOR AND USE THEREOF” (CHINA PHARMACEUTICAL UNIVERSITY, priority 2020, published 2023).

The subject of one assay is KM mice. The assay can be described thus: Test for drug-induced disappearance of righting reflex in mice. The assay is classed as in vivo. Particulars: 15 mg/kg, single rapid bolus via tail vein. The text has this:
In anesthetic drug experiments, latency generally refers to the time from the start of administration to the loss of consciousness of the subject. The shorter latency is preferred, indicating a rapid onset of action after administration. The duration of anesthesia generally refers to the duration of time from the loss of consciousness to the restoration of consciousness of the subject. The duration of the drug will vary from animal model to animal species. Too long anesthesia may produce adverse cardiovascular and respiratory responses, such as adverse neurological effects to the subject, including sleepiness and dizziness; meanwhile, too short duration of anesthesia may affect the anesthesia effect, causing problems such as increase of anesthesia dosage during the operation.
KM mice (female, 18-25 g) were randomly grouped and subjected to a single administration by rapid bolus via the tail vein. The latency and duration of disappearance of righting reflex in the mice were recorded.
`COC(=O)CC[C@@H]1N=C(c2ccccc2F)c2cc(Br)ccc2-n2c(SCCN3CCCCC3)nnc21` [Compound 123, methyl (S)-3-(8-bromo-6-(2-fluorophenyl)-1-(2-((piperidin-1-yl)ethyl)thio)-4H-benzo[f][1,2,4]triazolo[4,3-a][1,4]diazepin-4-yl)propionate] showed a Duration of 1.38 min and a Latency of 0.30 min.

The assay is the same for the next values; noted with them: 30 mg/kg, single rapid bolus via tail vein.
Take `COC(=O)CC[C@@H]1N=C(c2ccccc2F)c2cc(Cl)ccc2-n2c(SC)nnc21` [Compound 8, methyl (S)-3-(8-chloro-6-(2-fluorophenyl)-1-(methylthio)-4H-benzo[f][1,2,4]triazolo[4,3-a][1,4]diazepin-4-yl)propionate]: the Duration came to 8.35 min and the Latency is recorded as 0.36 min.

The compound `COC(=O)CC[C@@H]1N=C(c2ccccc2)c2cc(Cl)ccc2-n2c(SCCN3CCOCC3)nnc21` [Compound 105, methyl (S)-3-(8-chloro-1-((2-morpholinoethyl)thio)-6-phenyl-4H-benzo[f][1,2,4]triazolo[4,3-a][1,4]diazepin-4-yl)propionate] came in with a Duration of 13.94 min and a Latency of 0.63 min.

The compound `COC(=O)CC[C@@H]1N=C(c2ccccc2)c2cc(Cl)ccc2-n2c(S)nnc21` [Compound 7, methyl (S)-3-(8-chloro-6-phenyl-1-mercapto-4H-benzo[f][1,2,4]triazolo[4,3-a][1,4]diazepin-4-yl)propionate] returned a Duration of 12.26 min and a Latency of 1.14 min.

Regarding `COC(=O)CC[C@@H]1N=C(c2ccccc2F)c2cc(Br)ccc2-n2c(SCCCN3CCN(CCO)CC3)nnc21` [Compound 67, methyl (S)-3-(8-bromo-6-(2-fluorophenyl)-1-((3-(4-(2-hydroxyethyl)piperazin-1-yl)propyl)thio)-4H-benzo[f][1,2,4]triazolo[4,3-a][1,4]diazepin-4-yl)propionate], the Duration amounted to 11.37 min and the Latency was determined as 0.84 min.

`COC(=O)CC[C@@H]1N=C(c2ccccc2Cl)c2cc(Cl)ccc2-n2c(SCCn3ccnc3)nnc21` [Compound 138, methyl (S)-3-(8-chloro-6-(2-chlorophenyl)-1-(2-((1H-imidazol-1-yl)ethyl)thio)-4H-benzo[f][1,2,4]triazolo[4,3-a][1,4]diazepin-4-yl)propionate] came in with a Duration of 6.94 min and a Latency of 0.27 min.

With `CCN(CC)CCSc1nnc2n1-c1ccc(Br)cc1C(c1ccccc1F)=N[C@H]2CCC(=O)OC` [Compound 55, methyl (S)-3-(8-bromo-1-((2-(diethylamino)ethyl)thio)-6-(2-fluorophenyl)-4H-benzo[f][1,2,4]triazolo[4,3-a][1,4]diazepin-4-yl)propionate], the Duration is given as 13.84 min and the Latency is given as 0.74 min.

The compound `COC(=O)CC[C@@H]1N=C(c2ccccc2F)c2cc(Br)ccc2-n2c(SCCN(C)C)nnc21` [Compound 134, methyl (S)-3-(8-bromo-6-(2-fluorophenyl)-1-(2-((dimethylamino)ethyl)thio)-4H-benzo[f][1,2,4]triazolo[4,3-a][1,4]diazepin-4-yl)propionate] returned a Duration of 6.54 min and a Latency of 0.27 min.

`COC(=O)CC[C@@H]1N=C(c2ccccc2Cl)c2cc(Cl)ccc2-n2c(SCCN3CCN(C)CC3)nnc21` [Compound 90, methyl (S)-3-(8-chloro-6-(2-chlorophenyl)-1-((2-(4-methylpiperazin-1-yl)ethyl)thio)-4H-benzo[f][1,2,4]triazolo[4,3-a][1,4]diazepin-4-yl)propionate] yielded a Duration of 15.26 min and a Latency of 0.67 min.

For the compound `COC(=O)CC[C@@H]1N=C(c2ccccc2Cl)c2cc(Cl)ccc2-n2c(SCCN3CCC(F)(F)CC3)nnc21` [Compound 127, methyl (S)-3-(8-chloro-6-(2-chlorophenyl)-1-(2-((4,4-difluoropiperidin-1-yl)ethyl)thio)-4H-benzo[f][1,2,4]triazolo[4,3-a][1,4]diazepin-4-yl)propionate], the Duration is on record as 18.11 min and the Latency came out at 0.43 min.

On to `COC(=O)CC[C@@H]1N=C(c2ccccc2F)c2cc(Cl)ccc2-n2c(SC3CCN(C)CC3)nnc21` [Compound 63, methyl (S)-3-(8-chloro-6-(2-fluorophenyl)-1-((1-methylpiperidin-4-yl)thio)-4H-benzo[f][1,2,4]triazolo[4,3-a][1,4]diazepin-4-yl)propionate], for which the Duration amounted to 15.25 min and the Latency is reported as 1.23 min.

`COC(=O)CC[C@@H]1N=C(c2ccccc2Cl)c2cc(Cl)ccc2-n2c(SCC3CC3)nnc21` [Compound 75, methyl (S)-3-(8-chloro-6-(2-chlorophenyl)-1-((cyclopropylmethyl)thio)-4H-benzo[f][1,2,4]triazolo[4,3-a][1,4]diazepin-4-yl)propionate] gave a Duration of 6.53 min and a Latency of 0.51 min.

The compound `COC(=O)CC[C@@H]1N=C(c2ccccc2F)c2cc(Br)ccc2-n2c(SCCN3CCCCC3)nnc21` [Compound 123, methyl (S)-3-(8-bromo-6-(2-fluorophenyl)-1-(2-((piperidin-1-yl)ethyl)thio)-4H-benzo[f][1,2,4]triazolo[4,3-a][1,4]diazepin-4-yl)propionate] returned a Duration of 53.03 min and a Latency of 0.23 min.

In the case of `CCSc1nnc2n1-c1ccc(Cl)cc1C(c1ccccc1F)=N[C@H]2CCC(=O)OC` [Compound 11, methyl (S)-3-(8-chloro-6-(2-fluorophenyl)-1-(ethylthio)-4H-benzo[f][1,2,4]triazolo[4,3-a][1,4]diazepin-4-yl)propionate], the Duration is on record as 6.37 min and the Latency is 0.77 min.

On to `COC(=O)CC[C@@H]1N=C(c2ccccc2F)c2cc(Br)ccc2-n2c(SCCN3CCCC3)nnc21` [Compound 120, methyl (S)-3-(8-bromo-6-(2-fluorophenyl)-1-(2-((pyrrolidin-1-yl)ethyl)thio)-4H-benzo[f][1,2,4]triazolo[4,3-a][1,4]diazepin-4-yl)propionate], for which the Duration amounted to 19.47 min and the Latency came out at 0.29 min.

With `COC(=O)CC[C@@H]1N=C(c2ccccc2Cl)c2cc(Cl)ccc2-n2c(SC(C)=O)nnc21` [Compound 38, methyl (S)-3-(8-chloro-6-(2-chlorophenyl)-1-(acetylthio)-4H-benzo[f][1,2,4]triazolo[4,3-a][1,4]diazepin-4-yl)propionate], the Duration was found to be 12.94 min and the Latency is listed as 0.67 min.

As for `COC(=O)CC[C@@H]1N=C(c2ccccc2)c2ccccc2-n2c1n[nH]c2=S` [Tautomer of compound 5, methyl (S)-3-(6-phenyl-1-thio-2,4-dihydro-1H-benzo[f][1,2,4]triazolo[4,3-a][1,4]diazepin-4-yl)propionate], the Duration was 7.82 min and the Latency is on record as 0.73 min.

The compound `COC(=O)CC[C@@H]1N=C(c2ccccc2)c2cc(Br)ccc2-n2c(SC)nnc21` [Compound 103, methyl (S)-3-(8-bromo-1-(methylthio)-6-phenyl-4H-benzo[f][1,2,4]triazolo[4,3-a][1,4]diazepin-4-yl)propionate] came in with a Duration of 14.42 min and a Latency of 0.74 min.

Compound `COC(=O)CC[C@@H]1N=C(c2ccc(F)cc2)c2ccccc2-n2c1n[nH]c2=S` [Tautomer of compound 6, methyl (S)-3-(6-(4-fluorophenyl)-1-thio-2,4-dihydro-1H-benzo[f][1,2,4]triazolo[4,3-a][1,4]diazepin-4-yl)propionate] yielded a Duration of 8.84 min and a Latency of 0.73 min.

In the case of `CCCSc1nnc2n1-c1ccc([N+](=O)[O-])cc1C(c1ccccc1Cl)=N[C@H]2CCC(=O)OC` [Compound 31, methyl (S)-3-(8-nitro-6-(2-chlorophenyl)-1-(propylthio)-4H-benzo[f][1,2,4]triazolo[4,3-a][1,4]diazepin-4-yl)propionate], the Duration was found to be 8.98 min and the Latency was determined as 2.85 min.

For the compound `CCN(CC)CCSc1nnc2n1-c1ccc([N+](=O)[O-])cc1C(c1ccccc1Cl)=N[C@H]2CCC(=O)OC` [Compound 86, methyl (S)-3-(8-nitro-6-(2-chlorophenyl)-1-((2-(diethylamino)ethyl)thio)-4H-benzo[f][1,2,4]triazolo[4,3-a][1,4]diazepin-4-yl)propionate], the Duration is on record as 18.62 min and the Latency worked out at 0.62 min.

Staying with this assay, now noted: 60 mg/kg, single rapid bolus via tail vein.
Consider `COC(=O)CC[C@@H]1N=C(c2ccccc2)c2cc(Cl)ccc2-n2c(SCCN3CCOCC3)nnc21` [Compound 105, methyl (S)-3-(8-chloro-1-((2-morpholinoethyl)thio)-6-phenyl-4H-benzo[f][1,2,4]triazolo[4,3-a][1,4]diazepin-4-yl)propionate], for which the Duration is 13.17 min and the Latency is 0.49 min.

`COC(=O)CC[C@@H]1N=C(c2ccccc2F)c2cc([N+](=O)[O-])ccc2-n2c(SCCCN3CCN(CCO)CC3)nnc21` [Compound 68, methyl (S)-3-(8-nitro-6-(2-fluorophenyl)-1-((3-(4-(2-hydroxyethyl)piperazin-1-yl)propyl)thio)-4H-benzo[f][1,2,4]triazolo[4,3-a][1,4]diazepin-4-yl)propionate] returned a Duration of 15.02 min and a Latency of 0.68 min.

Regarding `COC(=O)CC[C@@H]1N=C(c2ccccc2Cl)c2cc([N+](=O)[O-])ccc2-n2c(SCCCN(C)C)nnc21` [Compound 89, methyl (S)-3-(8-nitro-6-(2-chlorophenyl)-1-((3-(dimethylamino)propyl)thio)-4H-benzo[f][1,2,4]triazolo[4,3-a][1,4]diazepin-4-yl)propionate], the Duration is 9.88 min and the Latency came out at 0.83 min.

Turning to `CCSc1nnc2n1-c1ccc(Cl)cc1C(c1ccccc1F)=N[C@H]2CCC(=O)OC` [Compound 11, methyl (S)-3-(8-chloro-6-(2-fluorophenyl)-1-(ethylthio)-4H-benzo[f][1,2,4]triazolo[4,3-a][1,4]diazepin-4-yl)propionate], the Duration was found to be 7.98 min and the Latency is on record as 0.83 min.

`CCOC(=O)CC[C@@H]1N=C(c2ccccc2Cl)c2cc(Cl)ccc2-n2c(S)nnc21` [Compound 41, ethyl (S)-3-(8-chloro-6-(2-chlorophenyl)-1-mercapto-4H-benzo[f][1,2,4]triazolo[4,3-a][1,4]diazepin-4-yl)propionate] came in with a Duration of 8.59 min and a Latency of 0.40 min.
